Test results as given in US20070225253A1, “Use of a trioxopyrimidine for the treatment and prevention of bronchial inflammatory diseases” (priority 2004, published 2007).
Converted amounts (≈) assume the structure as drawn. “And” between values parts separate entries of the source, which are not always exact repeats. Equal entries are not always repeated. Where two headings read alike, the source gives them in different places.

What was measured:
[1] = Phase solubility study of Compound I with HP-β-CD and L-lysine; format: physicochemical; details: for solubility at 7 days: 25 °C, thermodynamic from solid
Protocol: Solubility studies were performed as described by Higuchi, T., and Connors, K. A., Advances in Analytical Chemistry and Instrumentation 4 (1965) 117-212. Excess amounts of Compound I were added to increasing concentrations of HP-β-CD (0-200 mM) in 5 ml dissolution media, either purified water or L-lysine solutions (50 mM or 500 mM). The glass containers were sealed and the suspensions were shaken in a water-bath at 25° C. until complexation equilibrium was reached (7 days). An aliquot was filtered through a 0.45 μm PVDF membrane filter and assayed for Compound I content by a validated liquid chromatography (LC) method.

Human MMP-14 = Human MMP-14 (Homo sapiens, UniProt P50281); assay: MMP enzymatic activity, modified fluorescence assay (DNP-substrate); format: biochemical
Protocol: (§1) IC50 values are measured by an in vitro assay for MMP enzymatic activity. Such an assay is described by Stack, M. S., and Gray, R. D., J. Biol. Chem. 264 (1989) 4277-4281. This assay is based on the determination of MMP enzymatic activity on a dinitrophenol substrate and fluorescence measurement of the substrate after cleaving by MMPs.
(§2) Inhibitors were tested in a modified fluorescence-assay as described by Stack, M. S., and Gray, R. D., J. Biol. Chem. 264 (1989) 4277-4281. Human MMP-1, MMP-2, MMP-3, MMP-9 and MMP-14 are commercially available (e.g. Calbiochem). The pro-enzymes were activated with 1 mM APMA (incubation for 30 min at 37° C.) immediately before testing. Activated enzyme is diluted to 100 ng/ml in incubation buffer (50 mM Tris, 100 mM NaCl, 10 mM CaCl2, pH 7.6). The compounds were dissolved in 100% DMSO. […] DNP-substrate (Bachem M1855, 255 μM) was dissolved in incubation buffer.
(§3) The test tube contains 970 μl incubation buffer, 10 μl inhibitor solution and 10 μl enzyme solution. The reaction was started by adding the 10 μl substrate solution.
(§4) Kinetics of activity were determined using excitation at 280 nm and emission at 346 nm measured on a FluoroMax™ (Spex Industries Inc., Edison, N.J., USA) over 120 sec. DMSO has been used as control instead of inhibitor solution.
(§5) IC50's are defined as the concentration of inhibitor that gives a signal that is 50% of the positive enzyme control.

Human MMP-9 = Human MMP-9 (Homo sapiens, UniProt P14780); assay: as above; format: biochemical
Protocol: as §1, §2, §3, §4, §5

[2] = tested on: allergen-induced airway inflammation and bronchial hyperresponsiveness; assay: Mouse model of asthma (OVA), inhalation, short exposure challenge; format: in vivo, mice; details: inhalation of 40 mg/ml solution in pure DMSO, short-term exposure, vs DMSO alone
Protocol: In order to study the modulation of airway inflammation by intraperitoneal injection of Compound I, mice were sensitized with 10 μg ovalbumin alumin-adsorbed (aluminject, perbio, Erembodegem, Belgium) injected intraperitonealy at days 0 and 7 and were subsequently exposed to OVA 1% or PBS aerosols for 30 minutes from day 21 to 24. Intraperitoneal injections were performed 30 min before OVA inhalations. The different injected formulations were: cremophor 10%-DMSO 10%-PBS 80%- Compound I30 mg/kg (suspension); cremophor 10%-DMSO 10%-PBS 80%- Compound I3.75 mg/kg (solution); HPβCD 200 mM Compound I 7.5 mg/kg (solution); HPβCD 200 mM. All results were compared to mice sensitized and exposed to PBS and OVA treated with PBS injected intraperitonealy. In order to study the modulation of airway inflammation by inhaled Compound I, mice were sensitized as described previously. Two protocols referred to as short exposure challenge and long-term exposure challenge were used. In the short exposure challenge, mice were exposed to aerosols of Compound I-complex at concentrations of 0.03 and 0.3 mg/ml of active compound in aqueous solution of from day 21 to 27 during 30 min in a Plexiglas exposure chamber (30×20×15 cm). Mice were exposed to OVA aerosols 30 minutes after the Compound I inhalation from day 23 to 27. In the so called long-term inhalation challenge, mice were exposed to aerosols of Compound Iat concentrations of 0.03 and 0.3 mg/ml complexed with HPβCD in an aqueous solution during 30 min five days odd weeks and to OVA aerosols 3 days odd weeks for 11 weeks. No inhalations were performed during even weeks.
The aerosol were produced by using an ultrasonic nebuliser SYSTAM (Systeme Assistance Medical, Le Ledat, France), the vibration frequency of which is 2.4 MHz with variable vibration intensity and ventilation levels. Vibration intensity was fixed in position 6 and the ventilation level was 25(ν1/2)1/min.
Twenty-four hours after the last allergen exposure, the bronchial hyper responsiveness was determined by measuring the Penh using a barometric plethysmograph as proposed by Hamelmann, E., et al., Am. J Respir. Crit. Care Med. 156 (1997) 766-775). The Penh was measured at baseline and 5 min after the inhalation of increasing doses (25, 50, 75 and 100 mM) of methacholine (Mch).
Immediately after the assessment of airway responsiveness, mice were sacrificed and 1 ml of PBS free of ionised calcium and magnesium but supplemented with 0.05 mM sodium EDTA was instilled 4 times via a tracheal cannula and recovered by gentle manual aspiration. The recovered bronchoalveolar lavage fluid (BAL) was centrifuged (1800 rpm for 10 min at 4° C.). […] A value from 0 to 3 per criteria was adjudged to each tissue section scored. […]

Human MMP-9, sequence (P14780 107-707 limits assumed): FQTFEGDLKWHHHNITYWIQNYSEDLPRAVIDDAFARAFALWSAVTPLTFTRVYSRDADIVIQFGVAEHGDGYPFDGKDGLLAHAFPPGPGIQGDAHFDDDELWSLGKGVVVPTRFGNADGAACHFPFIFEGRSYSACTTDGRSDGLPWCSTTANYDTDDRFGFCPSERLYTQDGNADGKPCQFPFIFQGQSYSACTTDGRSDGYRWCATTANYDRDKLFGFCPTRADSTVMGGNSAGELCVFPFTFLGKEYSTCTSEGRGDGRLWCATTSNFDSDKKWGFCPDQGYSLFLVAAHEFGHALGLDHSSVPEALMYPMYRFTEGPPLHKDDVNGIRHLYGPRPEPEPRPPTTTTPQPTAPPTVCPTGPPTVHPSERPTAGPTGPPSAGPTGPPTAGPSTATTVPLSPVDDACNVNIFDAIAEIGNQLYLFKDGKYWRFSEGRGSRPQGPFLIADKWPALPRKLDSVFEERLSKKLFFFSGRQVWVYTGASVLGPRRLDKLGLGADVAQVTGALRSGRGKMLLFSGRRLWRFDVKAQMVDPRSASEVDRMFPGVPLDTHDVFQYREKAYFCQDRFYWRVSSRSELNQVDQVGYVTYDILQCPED

O=C1NC(=O)C(c2ccc(-c3ccccc3)cc2)(N2CCN(c3ccc([N+](=O)[O-])cc3)CC2)C(=O)N1 [Compound I, 5-Biphenyl-4-yl-5-[4-(4-nitro-phenyl)-piperazin-1-yl]pyrimidine-2,4,6-trione]
solubility at 7 days ([1]; 50 mM L-lysine solution with 200 mM HP-β-CD, aqueous with cosolvent or surfactant or cyclodextrin, L-lysine 50 mM, 25° C., read-out: Solubility with HP-β-CD (200 mM)): 17100 µg/mL (≈ 35.2 mM)
solubility at 7 days ([1]; 50 mM L-lysine solution, no cyclodextrin, aqueous buffer, L-lysine 50 mM, 25° C., read-out: Solubility without CD): 50 µg/mL (≈ 0.103 mM)
solubility at 7 days ([1]; 200 mM HP-β-CD in purified water, aqueous with cosolvent or surfactant or cyclodextrin, purified water, 25° C., read-out: Solubility with HP-β-CD (200 mM)): 5530 µg/mL (≈ 11.4 mM)
solubility at 7 days ([1]; 200 mM HP-β-CD in purified water, no L-lysine, aqueous with cosolvent or surfactant or cyclodextrin, solubility in a 200 mM HP-β-CD solution, absence of L-lysine): ~5500 µg/mL and ~11000 µM
increase of aqueous solubility ([1]; 200 mM HP-β-CD, no L-lysine, vs purified water): approximately 10,000 fold
solubility at 7 days ([1]; 500 mM L-lysine solution with 200 mM HP-β-CD, aqueous with cosolvent or surfactant or cyclodextrin, 500 mM L-lysine and 200 mM HP-β-CD, read-out: solubility): 38100 µg/mL (≈ 78.6 mM)
solubility at 7 days ([1]; 500 mM L-lysine solution with 200 mM HP-β-CD, aqueous with cosolvent or surfactant or cyclodextrin, L-lysine 500 mM, 25° C., read-out: Solubility with HP-β-CD (200 mM)): 38100 µg/mL (≈ 78.6 mM)
solubility at 7 days ([1]; 500 mM L-lysine solution, no cyclodextrin, aqueous buffer, L-lysine 500 mM, 25° C., read-out: Solubility without CD): 90 µg/mL (≈ 0.185 mM)
solubility at 7 days ([1]; 500 mM L-lysine solution, no cyclodextrin, aqueous buffer, L-lysine (500 mM) separately, no CD, read-out: solubility): 90 µg/mL (≈ 0.185 mM)
increase of aqueous solubility ([1]; 500 mM of L-lysine and 200 mM of HP-β-CD): 70,000 fold
solubility at 7 days ([1]; purified water, no cyclodextrin, water, purified water, 25° C., read-out: Solubility without CD): 0.56 µg/mL (≈ 0.00115 mM)
IC50 (Human MMP-14): 1 nM
IC50 (Human MMP-9): 260 nM
BAL eosinophils ([2]; p<0.005): significant decrease
peribronchial inflammation scores ([2]; p<0.01): significant decrease
bronchial hyperresponsiveness ([2]; p<0.05): significant decrease
